{"source": "patent US8680272B2", "about": "“3-arylethynyl substituted quinazolinone compounds” (Council of Scientific & Industrial Research, priority 2011, dated 2014)", "key": {"[1]": {"assay": "Anticancer activity, SRB assay, non-small cell lung panel", "type": "cell-based, human", "details": "Homo sapiens; nine non-small cell lung cancer cell lines; exposure period of at least 48 h; read-out: GI50 (range over the panel)", "method": "(§1) Some of biological activity studies were carried out at the National Cancer Institute (NCI), Maryland, USA.\n(§2) The compounds were evaluated for anticancer activity against sixty human cancer cells derived from nine cancer types (leukemia cell line, non-small-cell lung cell line, colon cell line, CNS cell line, melanoma cell line, ovarian cell line, prostate cell line, renal cell line and breast cancer cell line) as shown in Table 1. For each compound, dose response curves for each cell line were measured at a minimum of five concentrations at 10 fold dilutions. A protocol of 48 h continuous drug exposure was used and a sulforhodamine B (SRB) protein assay was used to estimate cell viability or growth."}, "[2]": {"system": "nine non-small cell lung cancer cell lines (A549/ATCC, EKVX, HOP-62, HOP-92, NCI-H226, NCI-H23, NCI-H322M, NCI-H460 and NCI-H522)", "assay": "Anticancer activity, SRB assay, non-small cell lung panel", "type": "cell-based, human", "details": "Non-small cell lung", "method": "as §1, §2"}, "RPMI-8226": {"system": "RPMI-8226", "assay": "Anticancer activity, SRB assay, leukemia cell line RPMI-8226", "type": "cell-based", "details": "Homo sapiens; Leukemia RPMI-8226; 48 h continuous drug exposure; read-out: Growth Inhibition GI50", "method": "as §1, §2"}, "M14": {"system": "M14", "assay": "Anticancer activity, SRB assay, melanoma cell line M14", "type": "cell-based", "details": "Homo sapiens, 48 h continuous drug exposure, read-out: Growth Inhibition GI50", "method": "as §1, §2"}, "SF-539": {"system": "SF-539", "assay": "Anticancer activity, SRB assay, CNS cell line SF-539", "type": "cell-based, human", "details": "Homo sapiens; CNS SF-539; 48 h continuous drug exposure; —^b means GI50 values not attained at the concentrations used; read-out: Growth Inhibition GI50", "method": "as §1, §2"}, "[3]": {"system": "seven ovarian cancer cell lines (IGROV1, OVCAR-3, OVCAR-4, OVCAR-5, OVCAR-8, NCI/ADR-RES and SK-OV-3)", "assay": "Anticancer activity, SRB assay, ovarian panel", "type": "cell-based, human", "method": "as §1, §2"}, "UO-31": {"system": "UO-31", "assay": "Anticancer activity, SRB assay, renal cell line UO-31", "type": "cell-based, human", "details": "Homo sapiens; Renal UO-31; 48 h continuous drug exposure; —^b means GI50 values not attained at the concentrations used; read-out: Growth Inhibition GI50", "method": "as §1, §2"}, "HOP-62": {"system": "HOP-62", "assay": "Anticancer activity, SRB assay, non-small lung cell line HOP-62", "type": "cell-based, human", "details": "Homo sapiens; Non-small lung HOP-62; 48 h continuous drug exposure; —^b means GI50 values not attained at the concentrations used; read-out: Growth Inhibition GI50", "method": "as §1, §2"}, "SF-268": {"system": "SF-268", "assay": "Anticancer activity, SRB assay, CNS cell line SF-268", "type": "cell-based, human", "details": "Homo sapiens; CNS SF-268; 48 h continuous drug exposure; —^b means GI50 values not attained at the concentrations used; read-out: Growth Inhibition GI50", "method": "as §1, §2"}, "[4]": {"system": "six leukemia cancer cell lines (CCRF-CEM, HL-60, K-562, MOLT-4, SR and RPMI-8226)", "assay": "Anticancer activity, SRB assay, leukemia panel", "type": "cell-based, human", "method": "as §1, §2"}, "SNB-19": {"system": "SNB-19", "assay": "Anticancer activity, SRB assay, CNS cell line SNB-19", "type": "cell-based, human", "details": "Homo sapiens; CNS SNB-19; 48 h continuous drug exposure; —^b means GI50 values not attained at the concentrations used; read-out: Growth Inhibition GI50", "method": "as §1, §2"}, "SK-MEL-28": {"system": "SK-MEL-28", "assay": "Anticancer activity, SRB assay, melanoma cell line SK-MEL-28", "type": "cell-based, human", "details": "Homo sapiens; Melanoma SK-MEL-28; 48 h continuous drug exposure; —^b means GI50 values not attained at the concentrations used; read-out: Growth Inhibition GI50", "method": "as §1, §2"}, "ACHN": {"system": "ACHN", "assay": "Anticancer activity, SRB assay, renal cell line ACHN", "type": "cell-based, human", "details": "Homo sapiens, 48 h continuous drug exposure, —^b means GI50 values not attained at the concentrations used, read-out: Growth Inhibition GI50", "method": "as §1, §2"}, "UACC-257": {"system": "UACC-257", "assay": "Anticancer activity, SRB assay, melanoma cell line UACC-257", "type": "cell-based", "details": "Homo sapiens; Melanoma UACC-257; 48 h continuous drug exposure; read-out: Growth Inhibition GI50", "method": "as §1, §2"}, "MALME-3M": {"system": "MALME-3M", "assay": "Anticancer activity, SRB assay, melanoma cell line MALME-3M", "type": "cell-based", "details": "Homo sapiens; Melanoma MALME-3M; 48 h continuous drug exposure; read-out: Growth Inhibition GI50", "method": "as §1, §2"}, "PC-3": {"system": "PC-3", "assay": "Anticancer activity, SRB assay, prostate cell line PC-3", "type": "cell-based, human", "details": "Homo sapiens; Prostate PC-3; 48 h continuous drug exposure; —^b means GI50 values not attained at the concentrations used; read-out: Growth Inhibition GI50", "method": "as §1, §2"}, "K-562": {"system": "K-562", "assay": "Anticancer activity, SRB assay, leukemia cell line K-562", "type": "cell-based", "details": "Homo sapiens, K562; Leukemia K-562; 48 h continuous drug exposure; read-out: Growth Inhibition GI50", "method": "as §1, §2"}, "SN12C": {"system": "SN12C", "assay": "Anticancer activity, SRB assay, renal cell line SN12C", "type": "cell-based, human", "details": "Homo sapiens, 48 h continuous drug exposure, —^b means GI50 values not attained at the concentrations used, read-out: Growth Inhibition GI50", "method": "as §1, §2"}, "HL-60(TB)": {"system": "HL-60(TB)", "assay": "Anticancer activity, SRB assay, leukemia cell line HL-60(TB)", "type": "cell-based", "details": "Homo sapiens; Leukemia HL-60(TB); 48 h continuous drug exposure; read-out: Growth Inhibition GI50", "method": "as §1, §2"}, "MDA-MB-468": {"system": "MDA-MB-468", "assay": "Anticancer activity, SRB assay, breast cell line MDA-MB-468", "type": "cell-based", "details": "Homo sapiens; Breast MDA-MB-468; 48 h continuous drug exposure; read-out: Growth Inhibition GI50", "method": "as §1, §2"}, "HCT-116": {"system": "HCT-116", "assay": "Anticancer activity, SRB assay, colon cell line HCT-116", "type": "cell-based", "details": "Homo sapiens; Colon HCT-116; 48 h continuous drug exposure; read-out: Growth Inhibition GI50", "method": "as §1, §2"}, "LOX IMVI": {"system": "LOX IMVI", "assay": "Anticancer activity, SRB assay, melanoma cell line LOX IMVI", "type": "cell-based", "details": "Homo sapiens, 48 h continuous drug exposure, read-out: Growth Inhibition GI50", "method": "as §1, §2"}, "SW-620": {"system": "SW-620", "assay": "Anticancer activity, SRB assay, colon cell line SW-620", "type": "cell-based", "details": "Homo sapiens; Colon SW-620; 48 h continuous drug exposure; read-out: Growth Inhibition GI50", "method": "as §1, §2"}, "[5]": {"system": "two prostate cancer cell line (PC-3, DU-145)", "assay": "Anticancer activity, SRB assay, prostate panel", "type": "cell-based, human", "method": "as §1, §2"}, "MDA-MB-435": {"system": "MDA-MB-435", "assay": "Anticancer activity, SRB assay, melanoma cell line MDA-MB-435", "type": "cell-based, human", "details": "Homo sapiens; Melanoma MDA-MB-435; 48 h continuous drug exposure; —^b means GI50 values not attained at the concentrations used; read-out: Growth Inhibition GI50", "method": "as §1, §2"}, "SNB-75": {"system": "SNB-75", "assay": "Anticancer activity, SRB assay, CNS cell line SNB-75", "type": "cell-based, human", "details": "Homo sapiens; CNS SNB-75; 48 h continuous drug exposure; —^b means GI50 values not attained at the concentrations used; read-out: Growth Inhibition GI50", "method": "as §1, §2"}}, "data": [{"smiles": "Cc1cc(C#Cc2ccccc2)ccc1-n1c(/C=C/c2ccc(O)cc2)nc2ccccc2c1=O", "note": "[Compound 4b, (E)-2-(4-Hydroxystyryl)-3-(2-methyl-4-(phenylethynyl)phenyl)quinazolin-4(3H)-one]", "values": [{"measurement": "GI50", "setting": "[1]", "value": "2.22 to 13.1", "unit": "µM"}, {"measurement": "mean graph midpoint values (MG_MID) of log10 TGI (Log10TGI50)", "setting": "[2]; log value of concentration of the compound resulting in total inhibition of net cell growth", "value": "−4.32"}, {"measurement": "mean graph midpoint values (MG_MID) of Log10LC50", "setting": "[2]; log value of the concentration of compounds leading to 50% net cell death", "value": "−4.04"}, {"measurement": "mean graph midpoint values (MG_MID) of Log10GI50", "setting": "[2]; log values of concentration in mol/L causing 50% inhibition of net cell growth", "value": "−5.47", "unit": "mol/L"}, {"measurement": "GI50", "setting": "RPMI-8226", "value": 2.33, "unit": "µM"}, {"measurement": "GI50", "setting": "M14", "value": 3.26, "unit": "µM"}, {"measurement": "GI50", "setting": "SF-539", "value": 5.65, "unit": "µM"}, {"measurement": "GI50", "setting": "[3]; Homo sapiens, seven ovarian cancer cell lines, exposure period of at least 48 h, read-out: GI50 (range over the panel)", "value": "3.09 to 20.6", "unit": "µM"}, {"measurement": "mean graph midpoint values (MG_MID) of log10 TGI (Log10TGI50)", "setting": "[3]; Ovarian, log value of concentration of the compound resulting in total inhibition of net cell growth", "value": "−4.23"}, {"measurement": "mean graph midpoint values (MG_MID) of Log10LC50", "setting": "[3]; Ovarian, log value of the concentration of compounds leading to 50% net cell death", "value": ">−4.00"}, {"measurement": "mean graph midpoint values (MG_MID) of Log10GI50", "setting": "[3]; Ovarian, log values of concentration in mol/L causing 50% inhibition of net cell growth", "value": "−5.33", "unit": "mol/L"}, {"measurement": "GI50", "setting": "UO-31", "value": 2.06, "unit": "µM"}, {"measurement": "GI50", "setting": "HOP-62", "value": 13.1, "unit": "µM"}, {"measurement": "GI50", "setting": "SF-268", "value": 4.56, "unit": "µM"}, {"measurement": "GI50", "setting": "[4]; Homo sapiens, six leukemia cancer cell lines, exposure period of at least 48 h, read-out: GI50 (range over the panel)", "value": "1.66 to 3.26", "unit": "µM"}, {"measurement": "mean graph midpoint values (MG_MID) of log10 TGI (Log10TGI50)", "setting": "[4]; Leukemia, log value of concentration of the compound resulting in total inhibition of net cell growth", "value": "−4.49"}, {"measurement": "mean graph midpoint values (MG_MID) of Log10LC50", "setting": "[4]; Leukemia, log value of the concentration of compounds leading to 50% net cell death", "value": ">−4.00"}, {"measurement": "mean graph midpoint values (MG_MID) of Log10GI50", "setting": "[4]; Leukemia, log values of concentration in mol/L causing 50% inhibition of net cell growth", "value": "−5.64", "unit": "mol/L"}, {"measurement": "GI50", "setting": "SNB-19", "value": 6.91, "unit": "µM"}, {"measurement": "GI50", "setting": "SK-MEL-28", "value": 4.54, "unit": "µM"}, {"measurement": "GI50", "setting": "ACHN", "value": 2.46, "unit": "µM"}, {"measurement": "GI50", "setting": "UACC-257", "value": 4.18, "unit": "µM"}, {"measurement": "GI50", "setting": "MALME-3M", "value": 2.12, "unit": "µM"}, {"measurement": "GI50", "setting": "PC-3", "value": 3.24, "unit": "µM"}, {"measurement": "GI50", "setting": "K-562", "value": 2, "unit": "µM"}, {"measurement": "GI50", "setting": "SN12C", "value": 3.77, "unit": "µM"}, {"measurement": "GI50", "setting": "HL-60(TB)", "value": 1.66, "unit": "µM"}, {"measurement": "GI50", "setting": "MDA-MB-468", "value": 3.78, "unit": "µM"}, {"measurement": "GI50", "setting": "HCT-116", "value": 2.66, "unit": "µM"}, {"measurement": "GI50", "setting": "LOX IMVI", "value": 2.78, "unit": "µM"}, {"measurement": "GI50", "setting": "SW-620", "value": 4.08, "unit": "µM"}, {"measurement": "GI50", "setting": "[5]; Homo sapiens, DU-145, two prostate cancer cell line, exposure period of at least 48 h, read-out: GI50 (range over the panel)", "value": "3.24 to 4.87", "unit": "µM"}, {"measurement": "mean graph midpoint values (MG_MID) of log10 TGI (Log10TGI50)", "setting": "[5]; Prostate, log value of concentration of the compound resulting in total inhibition of net cell growth", "value": ">−4.00"}, {"measurement": "mean graph midpoint values (MG_MID) of Log10LC50", "setting": "[5]; Prostate, log value of the concentration of compounds leading to 50% net cell death", "value": ">−4.00"}, {"measurement": "mean graph midpoint values (MG_MID) of Log10GI50", "setting": "[5]; Prostate, log values of concentration in mol/L causing 50% inhibition of net cell growth", "value": "−5.40", "unit": "mol/L"}, {"measurement": "GI50", "setting": "MDA-MB-435", "value": 2.82, "unit": "µM"}, {"measurement": "GI50", "setting": "SNB-75", "value": 3.66, "unit": "µM"}]}]}
